Reference: patent US20130216590A1, “TOPICAL ANTIVIRAL FORMULATIONS FOR PREVENTION OF TRANSMISSION OF HSV-2” (priority 2010, published 2013)
Converted amounts (≈) assume the structure as drawn. Read-outs that look alike come from different tables or passages of the source.

Key:
HSV-2 (G strain) = experiment: In vivo antiviral activity in HSV-2-infected NMRI athymic nude mice
Procedure: (§1) Adult NMRI athymic nude mice (weighing ˜20 g) were scarified on the lumbosacral area over a surface of about 1 cm^2. Mice were inoculated with 5×10^3 PFU of HSV-1 (Kos strain) or 5×10^2 of HSV-2 (G strain) in 50 μL per mouse. […] In each experiment, a group of animals treated with a placebo formulation that was the same as the test formulation without drug was included as a negative control. […] The day of virus inoculation was always considered as day 0. All animal procedures were approved by the K.U. Leuven Animal Care Committee. Development of lesions and mortality were recorded over a one month period. Animals were euthanized when more than 30% loss in body weight or development of paralysis occurred. Survival rates were estimated according to the Kaplan-Meir method and were compared using the log-rank test (Mantel-Cox) test (GraphPad Prism).

HIV-1 = details: cited from earlier work
HSV-1 strain F (HSV-1F) = experiment: Human ex vivo tonsillar tissue, HSV DNA release by real-time PCR; format: cell-based; details: Human alphaherpesvirus 1, read-out: EC50, suppression of replication
HSV-1 (Kos strain) = experiment: In vivo antiviral activity in HSV-1-infected NMRI athymic nude mice; details: 1% topical, 5 days
Procedure: as §1

[1] = tested on: thymidine kinase-deficient HSV-2 clinical isolates; experiment: microbe, parasite or virus in culture; format: cell-based; details: Human alphaherpesvirus 2, Fibroblast
HIV-1 (NL4.3) = experiment: Co-infection of TZM-bl cells with HIV-1 and HSV-2: LTR-driven luciferase; format: cell-based; details: presence or absence of an ongoing HSV-2 infection; data not shown
Procedure: The TZM-bl cell line is derived from HeLa cells and expresses high levels of CD4, CCR5 and CXCR4. In addition, this cell line is stably transduced with a LTR-driven firefly luciferase and E. coli-galactosidase gene (15). In a 96-well tray, 10,000 TZM-bl cells were seeded on day 1. […] Next, 100 μl of a virus suspension containing either HIV-1 (NL4.3), HSV-2 (G) or both viruses together was administered. Two to three days post infection, HIV-1 infection was monitored based on the determination of luciferase activity. For this means, 100 μl of culture supernatant was removed and 100 μl of Bright-Glo Luciferase Assay Substrate (Promega, Madison, USA) was added. The luminescence signal was measured using the Safire 2 microtiter plate reader (Tecan, Männedorf, Switzerland). A control condition containing only mock-infected cells was also included to measure the background luminescence levels. Three days post infection, HSV-2-induced cytopathicity was recorded microscopically based on giant cell formation.

HSV-2G = experiment: Human ex vivo tonsillar tissue coinfected with HSV-2G and HIV-1: HSV-2G DNA release; format: cell-based; details: 66 μg/ml, coinfected with HIV-1
Procedure: (§2) For each experimental condition 16 tissue blocks were immersed in 500 μl of a HSV-2 (strain G) suspension for 2 hours at 37° C., washed three times with PBS and then placed on the gelfoam rafts. Tenofovir was added during the infection and replenished at each culture medium change. Herpes simplex viral replication was evaluated by the release of viral DNA into the culture medium as measured by quantitative real-time PCR (17). HIV-1 replication was evaluated by the release of p24 capsid antigen using a bead-based assay (18).

HSV-2 (strain G) = experiment: Human ex vivo cervico-vaginal tissue, HSV-2 DNA release; format: cell-based; details: 166 μg/ml
Procedure: as §2

HSV-2 (G) = experiment: Organotypic epithelial raft cultures infected with HSV-2; format: cell-based
Procedure: For the preparation of epidermal equivalents, a collagen matrix solution was made with collagen mixed on ice with 10-fold concentrated HAM's F12 media, 10-fold reconstitution buffer and Swiss 3T3 J2 fibroblasts. One milliliter of the collagen matrix solution was poured into the wells of 24-well microtiter plates. After gel equilibration with 1 ml of growth medium overnight at 37° C., 2.5×10^5 PHK cells were seeded on the top of the gels and maintained submerged for 24-48 hours. The collagen rafts were raised and placed onto stainless-steel grids at the interface between air and liquid culture medium. The growth medium was a mixture of ⅓ HAM F12 and ⅔ Dulbecco's modified Eagle's medium, with the same supplements as used for the Keratinocyte-SFM. Epithelial cells were allowed to stratify, the medium being replaced every 2-3 days. For the evaluation of the antiviral effects of the compounds in the raft system, two series of rafts were run in parallel, one for histological examination and the other one for quantification of viral production by a plaque reduction assay. Rafts were infected with 5,000 PFU of HSV-1 (KOS) or […] strains after 10 days post-lifting and then the medium was replaced by medium containing different dilutions of the compounds. The growth medium containing the different concentrations of the compounds was changed two days later and 3 days later (after 15 days of differentiation), one series of rafts was fixed in 10% buffered formalin, embedded in paraffin and stained with hematoxylin and eosin for histological evaluation. Another series of rafts was used to quantify virus production. For that purpose, each raft was frozen in 3 ml phosphate buffer saline (PBS) and thawed to release the virus from the infected epithelium. Supernatants were clarified by centrifugation at 1,800 rpm and titrated by a plaque assay in HEL cell cultures. Virus production in each raft was then calculated. Two rafts were used for each drug concentration to determine the effects of the compounds on virus yield.

In the case of `C[C@H](Cn1cnc2c(N)ncnc21)OCP(=O)(O)O` [tenofovir, (R)-9-(2-phosphonylmethoxypropyl)adenine], the “survival curves and morbidity curves versus the placebo group” value (HSV-2 (G strain); DMSO formulation, starting the day of infection) is listed as “statistically significant difference”, the “appearance of lesions and subsequent death” value (HSV-2 (G strain); formulated in the gel at 1%) is listed as “delayed the appearance of herpes virus-related lesions and subsequent death” and the “reduction of HIV-1 transmission” value (HIV-1; 1% gel, women with high adherence) is listed as 54%. The “overall decrease in the frequency of the sexual transmission of HIV-1” value (HIV-1; formulated as a 1% gel, approximately 900 African women) was 39%, the EC50 (HSV-1 strain F (HSV-1F)) was 7 µg/mL (≈ 24.4 µM) and the “morbidity and survival curves compared to the placebo-treated group” value (HSV-1 (Kos strain)) was “significantly delayed”. For the same molecule, the EC50 ([1]; read-out: mean EC50) was 152 µg/mL (≈ 529 µM), the EC50 ([1]; read-out: range of EC50) was 131 to 179 µg/mL (≈ 456 to 623 µM) and the “suppression of HIV-1” value (HIV-1 (NL4.3)) was “equally suppressed”. For the same molecule, the “HSV-2G DNA release into culture medium” value (HSV-2G; IQR 4.3-5.7, untreated 7.3) was 5 log10 copies/ml, the “suppression of HSV-2G replication” value (HSV-2G; n=6) was 96±1% and the “viral production (cumulative viral DNA release)” value (HSV-2 (strain G); 12 days of culture, IQR 4.8-5.7, untreated 6.6) was 5.5 log10 copies/mL. For the same molecule, the “reduction of viral replication (averaged over experiments)” value (HSV-2 (strain G); n=5) was 78±9%, the “protection of the epithelium against HSV-2-induced cytopathicity (morphological analysis)” value (“protection … (morphological analysis)” below) (HSV-2 (G); 2 μg/ml) was “inactive” and the “protection … (morphological analysis)” value (HSV-2 (G); 20 μg/ml and 5 μg/ml) was “partially protective”. The “protection … (morphological analysis)” value (HSV-2 (G); 200 μg/ml and 50 μg/ml) was “protected the entire epithelium”, the “reduction in virus production” value (HSV-2 (G); HSV-2, 20 μg/ml) was 0.9 log and the “reduction in virus yield” value (HSV-2 (G); HSV-2, 50 μg/ml) was 1.75 logs. For the same molecule, the “log reduction in virus production (PFU) per raft” value (HSV-2 (G); HSV-2, 200 μg/ml) was 5.4 log and the “reduction of virus replication in the rafts” value (HSV-2 (G); lower concentrations (below 20 μg/ml)) was “unable to reduce virus replication”.
